Experimental data published in patent publication US20070088033A1, “Diaryl Substituted Pyridinones” (priority 2002, published 2007).
Values joined by “and” are separate entries in the source; they are usually repeats but may differ in a detail not shown here. Equal entries are not always repeated.

biological target: T1, human p38 kinase alpha (Homo sapiens, UniProt Q16539); assay: p38 kinase in vitro assay; assay type: biochemical; settings: Table I; average of n trials, n=1 if not reported; read-out: p38 Alpha IC50
T1 construct: The coding region of the human p38 cDNA was obtained by PCR-amplification from RNA isolated from the human monocyte cell line THP.1; GST (N); made in house; host or cells: E. coli DH10B
Description: The ability of compounds to inhibit human p38 kinase alpha was evaluated using two in vitro assay methods. In the first method, activated human p38 kinase alpha phosphorylates a biotinylated substrate, PHAS-I (phosphorylated heat and acid stable protein-insulin inducible), in the presence of gamma ^32p-ATP (^32P-ATP). PHAS-I was biotinylated prior to the assay and provides a means of capturing the substrate, which is phosphorylated during the assay. p38 Kinase was activated by MKK6. Compounds were tested in 10 fold serial dilutions over the range of 100 μM to 0,001 μM using 1% DMSO. Each concentration of inhibitor was tested in triplicate.
All reactions were carried out in 96 well polypropylene plates. Each reaction well contained 25 mM HEPES pH 7.5, 10 mM magnesium acetate and 50 μM unlabeled ATP. […] Activated human p38 kinase alpha was used at 1 μg per 50 μl reaction volume representing a final concentration of 0.3 μM. Gamma ^32P-ATP was used to follow the phosphorylation of PHAS-I. ^32P-ATP has a specific activity of 3000 Ci/mmol and was used at 1.2 μCi per 50 μl reaction volume. The reaction proceeded either for one hour or overnight at 30° C.
Following incubation, 20 μl of reaction mixture was transferred to a high capacity streptavidin coated filter plate (SAM-streptavidin-matrix, Promega) prewetted with phosphate buffered saline, The transferred reaction mix was allowed to contact the streptavidin membrane of the Promega plate for 1-2 minutes. […] Filter plates were air-dried and 20 μl of scintillant was added. The plates were sealed and counted.
A second assay format was also employed that is based on p38 kinase alpha induced phosphorylation of EGFRP (epidermal growth factor receptor peptide, a 21 mer) in the presence ^33P-ATP. Compounds were tested in 10 fold serial dilutions over the range of 100 μM to 0.001 μM in 1% DMSO. Each concentration of inhibitor was tested in triplicate. Compounds were evaluated in 50 μl reaction volumes in the presence of 25 mM Hepes pH 7.5, 10 mM magnesium acetate, 4% glycerol, 0.4% bovine serum albumin, 0.4 mM DTT, 50 μM unlabeled ATP, 25 μg EGFRP (200 μM), and 0.05 μCi ^33p-ATP. Reactions were initiated by addition of 0.09 μg of activated, purified human GST-p38 kinase alpha. Activation was carried out using GST-MKK6 (5:1,p38:MKK6) for one hour at 30° C. in the presence of 50 μM ATP. Following incubation for 60 minutes at room temperature, the reaction was stopped by addition of 150 μl of AG 1×8 resin in 900 mM sodium formate buffer, pH 3.0 (1 volume resin to 2 volumes buffer). The mixture was mixed three times with pipetting and the resin was allowed to settle. A total of 50 μl of clarified solution head volume was transferred from the reaction wells to Microlite-2 plates. 150 μl of Microscint 40 was then added to each well of the Microlite plate, and the plate was sealed, mixed, and counted.

T1 sequence (Q16539 whole entry): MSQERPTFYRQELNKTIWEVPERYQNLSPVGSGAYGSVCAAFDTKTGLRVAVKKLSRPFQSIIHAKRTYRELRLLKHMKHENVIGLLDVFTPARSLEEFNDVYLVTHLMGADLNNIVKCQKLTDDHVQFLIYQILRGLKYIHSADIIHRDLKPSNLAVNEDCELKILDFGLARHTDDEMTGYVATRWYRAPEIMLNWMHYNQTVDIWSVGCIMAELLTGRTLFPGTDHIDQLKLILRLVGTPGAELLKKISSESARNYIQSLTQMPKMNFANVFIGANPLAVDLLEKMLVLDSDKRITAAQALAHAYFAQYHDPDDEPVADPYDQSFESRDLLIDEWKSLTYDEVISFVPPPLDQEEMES

Compound	IC50 [µM]
O=c1c(Br)c(OCc2ccc(F)cc2F)ccn1Cc1cccc(F)c1 [E]	0.129
Cc1cc(OCc2ccc(F)cc2F)c(Br)c(=O)n1-c1c(Cl)cccc1Cl [G]	0.179
Cc1cc(OCc2ccccc2)c(Br)c(=O)n1-c1c(Cl)cccc1Cl [DD]	0.554
O=c1c(Br)c(OCc2ccccc2)ccn1Cc1ccc(F)cc1 [D]	0.17
O=c1c(Br)c(OCc2cccc(Cl)c2)ccn1Cc1cccc(F)c1 [AA]	0.691
N#Cc1ccc(Cn2ccc(OCc3ccc(F)cc3)c(Br)c2=O)cc1 [GG]	0.785
O=c1c(I)c(OCc2ccc(F)cc2)ccn1Cc1cccc(F)c1 [HH]	0.746
O=c1c(Br)c(OCc2ccc(F)cc2F)ccn1Cc1ccc(F)cc1F [JJ]	0.85
O=c1c(Br)c(OCc2ccc(F)cc2F)ccn1Cc1ccccc1F [M]	0.36
Cc1cccc(C)c1-n1c(C)cc(OCc2ccc(F)cc2)c(Br)c1=O [V]	0.455
Cc1cc(OCc2ccccc2)c(Br)c(=O)n1Cc1ccccc1 [K]	0.219
COc1cccc(C)c1-n1c(C)cc(OCc2ccc(F)cc2F)c(Br)c1=O [L]	0.294
N#Cc1ccc(Cn2ccc(OCc3ccccc3)c(Br)c2=O)cc1 [CC]	0.536
O=c1c(Br)c(OCc2ccc(F)cc2)ccn1Cc1ccc(F)cc1 [B]	0.403
COC(=O)c1ccc(Cn2ccc(OCc3ccccc3)c(Br)c2=O)cc1 [Z]	0.507
Cc1cc(OCc2ccc(F)cc2)c(Br)c(=O)n1-c1c(Cl)cccc1Cl [P]	0.403
O=C(O)c1ccc(Cn2ccc(OCc3ccccc3)c(Br)c2=O)cc1 [T]	0.423
Cc1cccc(COc2ccn(Cc3cccc(F)c3)c(=O)c2Br)c1 [H]	0.26
N/C(=N/O)c1ccc(Cn2ccc(OCc3ccccc3)c(Br)c2=O)cc1 [Y]	0.489
O=c1c(Br)c(OCc2ccc(F)cc2)ccn1Cc1cccnc1 [II]	0.873
O=c1c(Br)c(OCc2ccccc2)ccn1Cc1ccc(Cl)cc1 [R]	0.398
O=c1c(Br)c(OCc2ccccc2)ccn1Cc1ccc(Br)cc1 [FF]	0.581
O=c1c(Br)c(OCc2ccc(F)cc2)ccn1Cc1ccncc1 [EE]	0.572
O=c1c(Br)c(OCc2ccc(F)cc2)ccn1Cc1cccc(F)c1 [BB]	0.632
COc1cccc(Cn2ccc(OCc3ccc(F)cc3F)c(Br)c2=O)c1 [Example S]	0.498

same assay, conditions: Table II; several values in a cell = repeat determinations; read-out: p38A

Compound	IC50
O=c1c(Br)c(OCc2ccc(F)cc2)ccn1Cc1cccc(Cl)c1 [UU]	1.14 µM
O=c1c(CO)c(OCc2ccccc2)ccn1Cc1ccccc1 [NNN]	24.9 µM
O=c1c(Br)c(OCc2ccccc2C(F)(F)F)ccn1Cc1ccccc1 [CCCC]	77.6 µM
CCn1ccc(OCc2ccccc2)c(Br)c1=O [AAA]	1.99 µM
O=c1c(Br)c(OCc2ccc(Cl)cc2)ccn1Cc1cccc(Cl)c1 [RR]	6.8 µM
O=c1c(Br)c(OCc2ccc(F)cc2)ccn1Cc1ccc(F)cc1 [SS]	1.25 µM and 0.921 µM
O=c1c(Br)c(OCc2ccc(Cl)cc2)ccn1Cc1ccc(F)cc1 [PP]	1.9 µM
O=c1c(Br)c(OCc2ccccc2)ccn1CCc1ccsc1 [QQQ]	3.31 µM
O=c1cc(OCc2ccccc2)ccn1Cc1ccccc1F [FFFF]	33.8 µM
COc1ccc(Cn2ccc(OCc3ccc(Cl)cc3)c(Br)c2=O)cc1 [QQ]	2.41 µM
O=c1c(Br)c(OCc2ccccc2)ccn1Cc1ccc(OCc2ccccc2)cc1 [TT]	1.45 µM
O=c1c(Br)c(OCc2ccccc2)ccn1CC1CCNCC1 [III]	90.9 µM
O=c1c(Br)c(OCc2ccccc2)ccn1Cc1cccc(C(F)(F)F)c1 [SSS]	9.86 µM
Cc1cc(OCc2ccccc2)cc(=O)n1Cc1ccccc1 [OOOO]	38.7 µM
Cc1ccc(COc2ccn(Cc3ccccc3)c(=O)c2Br)cc1 [LL]	1.73 µM
O=c1c(Br)c(OCc2ccc(Cl)cc2)ccn1Cc1ccc(Cl)cc1 [OO]	2.46 µM
Cc1c(Br)c(OCc2ccccc2)c(Br)c(=O)n1Cc1ccccc1 [FFF]	41.6 µM
O=c1c(Br)c(OCc2c(Cl)cccc2Cl)ccn1Cc1ccccc1 [VV]	14.3 µM

Compound	IC50
O=c1c(Br)c(OCc2ccc(Cl)cc2)ccn1CCSc1ccccc1 [RRR]	56.5 µM
O=c1c(Br)c(OCc2ccccc2)ccn1CCc1cccs1 [YYY]	2.23 µM
Cc1cc(OCc2cccc(Cl)c2)c(Br)c(=O)n1Cc1ccccc1 [CCC]	1.6 µM
O=c1c(Br)c(OCc2ccc(F)cc2)ccn1CCCc1ccccc1 [HHH]	18 µM
CC(C)(C)c1ccc(Cn2ccc(OCc3ccccc3)c(Br)c2=O)cc1 [ZZ]	3.67 µM
O=c1c(Br)c(OCc2ccc(Cl)cc2)ccn1CCc1ccccc1 [DDD]	6.63 µM
Cc1cc(OCc2ccccc2)c(Br)c(=O)n1Cc1ccccc1 [XX]	0.219 µM
Cc1c(OCc2ccccc2)ccn(Cc2ccccc2)c1=O [JJJ]	7.99 µM and 3.46 µM
O=c1cc(OCc2cccc(Cl)c2)ccn1Cc1ccccc1 [XXX]	51.5 µM
Cn1ccc(OCc2ccccc2)c(Br)c1=O [GGG]	13.2 µM
Cn1ccc(OCc2ccccc2)c(Br)c1=O [EEE]	11.5 µM
O=c1cc(OCc2ccccc2)ccn1Cc1cccc(F)c1 [PPP]	35.8 µM
O=c1cc(OCc2ccccc2)ccn1Cc1ccc(F)cc1 [NNNN]	64.8 µM
O=c1cc(OCc2ccccc2)ccn1Cc1ccc(Cl)cc1 [GGGG]	31.9 µM
O=c1c(Br)c(OCc2ccc(Cl)cc2)ccn1Cc1ccccc1 [MM]	1.38 µM
O=c1c(Br)c(OCc2ccccc2Cl)ccn1Cc1ccccc1 [NN]	2.03 µM
O=c1c(Br)c(SCc2ccccc2)ccn1Cc1ccccc1 [BBBB]	3.6 µM
O=c1c(Br)c(OCc2ccccc2)ccn1Cc1ccc(OC(F)(F)F)cc1 [DDDD]	2.51 µM

same assay, conditions: Table III; n = number of times assayed, n=1 if not reported; read-out: p38 Alpha IC50

Compound	IC50 [µM]
O=c1c(Br)c(OCc2cccc(Cl)c2)ccn1Cc1cccc(F)c1 [DDDDD]	0.691
O=c1c(I)c(OCc2ccccc2)ccn1Cc1cccc(F)c1 [PPPPP]	1.76
O=c1c(Br)c(OCc2ccc(F)cc2)ccn1Cc1cccc(Cl)c1 [IIIII]	1.14
O=c1c(Br)c(OCc2ccc(F)cc2)ccn1CC1CC1 [JJJJJ]	1.55
O=c1c(Br)c(OCc2ccccc2)ccn1Cc1ccc(C(F)(F)F)cc1 [MMMMM]	1.53
O=c1c(Br)c(OCc2ccccc2CO)ccn1Cc1cccc(F)c1 [CCCCC]	0.663
Cc1ccc(COc2ccn(Cc3ccccc3)c(=O)c2Br)cc1 [QQQQQ]	1.73
Cc1cc(OCc2c(F)cccc2F)c(Br)c(=O)n1Cc1ccncc1 [EEEEE]	0.684
Cc1cc(OCc2ccc(F)cc2F)c(Br)c(=O)n1Cc1ccncc1 [VVVV]	0.183
Cc1cccc(C)c1-n1c(C)cc(OCc2c(F)cccc2F)c(Br)c1=O [QQQQ]	0.199
Cc1cccc(C)c1-n1ccc(OCc2ccc(F)cc2)c(Br)c1=O [BBBBB]	0.455
Cc1cc(CCc2ccccc2)c(Br)c(=O)n1Cc1cccc(F)c1 [LLLLL]	1.71
Cc1cccc(C)c1-n1c(C)cc(OCc2c(F)cc(F)cc2F)c(Br)c1=O [PPPP]	0.097
O=c1c(Br)c(OCc2ccccc2)ccn1Cc1ccc(F)nc1 [RRRRR]	1.85
Cc1cccc(COc2ccn(Cc3cccc(F)c3)c(=O)c2Br)c1 [WWWW]	0.26
NCc1cccc(Cn2ccc(OCc3ccc(F)cc3)c(Br)c2=O)c1 [TTTT]	0.175
Cc1ccccc1COc1ccn(Cc2cccc(F)c2)c(=O)c1Br [NNNNN]	1.69
O=c1c(Br)c(NCc2ccccc2)ccn1Cc1cccc(F)c1 [HHHHH]	1.18
Cc1cc(OCc2cccc(Cl)c2)c(Br)c(=O)n1Cc1ccccc1 [OOOOO]	1.6
COc1ccc(Cn2ccc(OCc3ccc(F)cc3)c(Br)c2=O)cc1 [GGGGG]	1.04
CCn1ccc(OCc2ccccc2)c(Br)c1=O [SSSSS]	1.99
O=c1c(Br)c(OCc2ccccc2)ccn1Cc1ccc(OCc2ccccc2)cc1 [KKKKK]	1.45
Cc1cc(OCc2c(F)cc(F)cc2F)c(Br)c(=O)n1Cc1ccncc1 [UUUU]	0.192
O=c1c(Br)c(OCc2ccc(F)cc2F)ccn1Cc1ccncc1 [SSSS]	0.141
